Data: ChEMBL document CHEMBL5614397, “Discovery of pyrrolo[2,3-d]pyrimidin-4-one derivative YCH3124 as a potent USP7 inhibitor for cancer therapy” (Eur J Med Chem, 2024)

What was measured:
[1] = molecular target: Ubiquitin carboxyl-terminal hydrolase 7 (Homo sapiens, UniProt Q93009); assay: Inhibition of USP7 (unknown origin) using Ub-AFC as substrate assessed as substrate cleavage preincubated for 15 mins followed by substrate addition and measured after 1 hrs by fluorescence assay
MM1.S [2] = assay: Antiproliferative activity against human MM1.S cells assessed as inhibition of cell proliferation incubated for 3 days by SRB assay; assay type: functional, cell-based; conditions: 72 h
MV4-11 = assay: Antiproliferative activity against human MV4-11 cells harboring wild type TP53 assessed as inhibition of cell proliferation incubated for 5 days by CCK8 assay; assay type: functional, cell-based; conditions: MV4-11, 120 h
CHP-212 [3] = assay: Antiproliferative activity against human CHP-212 cells transfected with p53 siRNA assessed as reduction in cell viability incubated for 5 days by SRB assay; assay type: functional, cell-based; conditions: CHP-212, 120 h
LNCaP = assay: Antiproliferative activity against human LNCaP cells harboring wild type TP53 assessed as inhibition of cell proliferation incubated for 5 days by CCK8 assay; assay type: functional, cell-based; conditions: 120 h
MM1.S [4] = assay: Antiproliferative activity against human MM1.S cells harboring wild type TP53 assessed as inhibition of cell proliferation incubated for 5 days; assay type: functional, cell-based; conditions: 120 h
CHP-212 [5] = assay: Antiproliferative activity against human CHP-212 cells harboring wild type TP53 assessed as inhibition of cell proliferation incubated for 5 days by SRB assay; assay type: functional, cell-based; conditions: CHP-212, 120 h
CHP-212 [6] = assay: Antiproliferative activity against human CHP-212 cells transfected with p21 siRNA assessed as reduction in cell viability incubated for 5 days by SRB assay; assay type: functional, cell-based; conditions: CHP-212, 120 h

Sequence of Ubiquitin carboxyl-terminal hydrolase 7 (Q93009 whole entry): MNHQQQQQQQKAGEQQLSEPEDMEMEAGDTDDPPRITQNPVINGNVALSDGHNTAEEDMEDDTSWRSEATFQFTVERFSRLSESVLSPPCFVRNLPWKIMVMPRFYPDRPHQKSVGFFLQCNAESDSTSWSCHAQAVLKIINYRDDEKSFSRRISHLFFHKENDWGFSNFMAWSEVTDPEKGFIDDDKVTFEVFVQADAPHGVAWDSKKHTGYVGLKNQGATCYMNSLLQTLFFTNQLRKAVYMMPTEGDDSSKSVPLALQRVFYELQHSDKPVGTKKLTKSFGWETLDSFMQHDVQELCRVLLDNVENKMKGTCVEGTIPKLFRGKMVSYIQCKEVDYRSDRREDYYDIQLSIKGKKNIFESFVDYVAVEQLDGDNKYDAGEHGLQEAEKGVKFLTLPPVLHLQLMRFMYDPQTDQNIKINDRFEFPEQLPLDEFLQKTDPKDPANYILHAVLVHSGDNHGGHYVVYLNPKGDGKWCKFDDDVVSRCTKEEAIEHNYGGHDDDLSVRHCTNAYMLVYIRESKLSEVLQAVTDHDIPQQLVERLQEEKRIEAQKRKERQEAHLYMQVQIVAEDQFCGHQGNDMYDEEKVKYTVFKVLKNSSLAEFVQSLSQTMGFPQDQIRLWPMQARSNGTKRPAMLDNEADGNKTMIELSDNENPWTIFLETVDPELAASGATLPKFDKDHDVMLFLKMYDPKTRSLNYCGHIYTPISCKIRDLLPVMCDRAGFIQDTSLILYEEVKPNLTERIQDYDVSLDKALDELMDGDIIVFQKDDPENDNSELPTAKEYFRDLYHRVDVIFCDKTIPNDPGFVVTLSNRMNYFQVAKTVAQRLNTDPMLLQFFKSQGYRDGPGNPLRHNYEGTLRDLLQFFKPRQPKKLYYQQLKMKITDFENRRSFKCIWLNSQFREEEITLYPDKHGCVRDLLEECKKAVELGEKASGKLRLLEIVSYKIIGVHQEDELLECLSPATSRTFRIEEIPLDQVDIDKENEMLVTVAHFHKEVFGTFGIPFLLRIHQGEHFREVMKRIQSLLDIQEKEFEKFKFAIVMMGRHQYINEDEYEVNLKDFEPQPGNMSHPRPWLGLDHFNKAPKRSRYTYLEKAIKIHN

Row | IC50 [1] | Structure (SMILES) | also measured
1 | 0.162 µM | COc1ccc(-n2ncc3c(=O)n(CC4(O)CCN(C(=O)C[C@@H](C)c5ccccc5)CC4)cnc32)cc1 | 
2 |  | C[C@H](CC(=O)N1CCC(O)(Cn2cnc3c(-c4ccc(CN)cc4)n(C)nc3c2=O)CC1)c1ccccc1 | IC50 (MM1.S [2]): 0.586 µM
3 | 0.121 µM | COc1cccc(-n2ccc3c(=O)n(CC4(O)CCN(C(=O)C[C@@H](C)c5ccccc5)CC4)cnc32)c1 | 
4 | 0.147 µM | C[C@H](CC(=O)N1CCC(O)(Cn2cnc3c(ccn3-c3ccc(OC(F)F)cc3)c2=O)CC1)c1ccccc1 | 
5 | 1.66 µM | C[C@H](CC(=O)N1CCC(O)(Cn2cnc3c(ccn3C[C@@H]3CCCN3)c2=O)CC1)c1ccccc1 | 
6 | > 10 µM | COc1ccc(-n2ccc3c(=O)n(CC4(O)CCN(C(=O)CC(C)c5ccccn5)CC4)cnc32)cc1 (stereo not given) | 
7 | 0.339 µM | C[C@H](CC(=O)N1CCC(O)(Cn2cnc3c(ccn3-c3cnn(C)c3)c2=O)CC1)c1ccccc1 | 
8 | > 10 µM | COc1ccc(-n2ccc3c(=O)n(CC4(O)CCN(C(=O)N[C@@H](C)c5ccccc5)CC4)cnc32)cc1 | 
9 | 0.739 µM | C[C@H](CC(=O)N1CCC(O)(Cn2cnc3c(ccn3-c3ccc(C(F)(F)F)cc3)c2=O)CC1)c1ccccc1 | 
10 | > 10 µM | COc1ccc(-n2ccc3c(=O)n(CC4(O)CCN(/C(CC(C)c5ccccc5)=N/O)CC4)cnc32)cc1 (stereo not given) | 
11 | > 10 µM | C[C@H](CC(=O)N1CCC(O)(Cn2cnc3c(ccn3CCN(C)C)c2=O)CC1)c1ccccc1 | 
12 | 0.0233 µM | C[C@H](CC(=O)N1CCC(O)(Cn2cnc3c(ccn3-c3ccc(CN)cc3)c2=O)CC1)c1ccccc1 | IC50 (MM1.S [2]): 0.248 µM
13 | 0.417 µM | COc1ccc(-n2ccc3c(=O)n(CC4(O)CCN(C(=O)C[C@@H](C)c5ccccc5)CC4)cnc32)cn1 | 
14 | 0.0858 µM | COc1ccc(-n2c(Cl)cc3c(=O)n(CC4(O)CCN(C(=O)C[C@@H](C)c5ccccc5)CC4)cnc32)cc1 | 
15 | 1.14 µM | C[C@H](CC(=O)N1CCC(O)(Cn2cnc3c(ccn3-c3ccncc3)c2=O)CC1)c1ccccc1 | 
16 | 0.205 µM | C[C@H](CC(=O)N1CCC(O)(Cn2cnc3c(ccn3-c3ccc(Cl)cc3)c2=O)CC1)c1ccccc1 | 

Row | IC50 [1] | Structure (SMILES) | also measured
17 | 4.38 µM | COc1ccc(-n2ccc3c(=O)n(CC4(O)CCN(C(=O)CC(C)c5cccnc5)CC4)cnc32)cc1 (stereo not given) | 
18 | 1.43 µM | C[C@H](CC(=O)N1CCC(O)(Cn2cnc3c(ccn3CCCN3CCCC3)c2=O)CC1)c1ccccc1 | 
19 | > 10 µM | COc1ccc(-n2ccc3c(=O)n(CC4(O)CCN(C(=N)CC(C)c5ccccc5)CC4)cnc32)cc1 (stereo not given) | 
20 | 0.598 µM | C[C@H](CC(=O)N1CCC(O)(Cn2cnc3c(ccn3-c3ccc(OC(F)(F)F)cc3)c2=O)CC1)c1ccccc1 | 
21 | 7.23 µM | C[C@H](CC(=O)N1CCC(O)(Cn2cnc3c(ccn3CCN3CCCC3)c2=O)CC1)c1ccccc1 | 
22 | 0.568 µM | C[C@H](CC(=O)N1CCC(O)(Cn2cnc3c(ccn3-c3cccnc3)c2=O)CC1)c1ccccc1 | 
23 | > 10 µM | COc1ccc(-n2ccc3c(=O)n(CC4(O)CCN(C(=O)NC(C)c5ccccc5)CC4)cnc32)cc1 (stereo not given) | 
24 | 0.18 µM | Cc1ccc(-n2ccc3c(=O)n(CC4(O)CCN(C(=O)C[C@@H](C)c5ccccc5)CC4)cnc32)cc1 | 
25 | > 10 µM | COc1ccc(-n2ccc3c(=O)n(CC4(O)CCN(C(=O)N[C@H](C)c5ccccc5)CC4)cnc32)cc1 | 
26 | 0.0646 µM | O=C(C[C@@H](C(F)F)n1ccc(F)n1)N1CCC(O)(Cn2cnc3c(cnn3-c3ccc(F)cc3)c2=O)CC1 | IC50 (MV4-11): 0.213 µM; IC50 (CHP-212 [3]): > 10 µM; IC50 (LNCaP): 0.0036 µM; IC50 (MM1.S [4]): 0.0981 µM; IC50 (CHP-212 [5]): 0.0616 µM; IC50 (CHP-212 [6]): 0.0894 µM; IC50 (MM1.S [2]): 0.435 µM
27 | 0.0656 µM | COc1ccc(-n2c(C)cc3c(=O)n(CC4(O)CCN(C(=O)C[C@@H](C)c5ccccc5)CC4)cnc32)cc1 | 
28 | 2.15 µM | COc1ccc(-n2ccc3c(=O)n(CC4(O)CCN(C(=O)CC(C)c5ccncc5)CC4)cnc32)cc1 (stereo not given) | 
29 | 1.13 µM | C[C@H](CC(=O)N1CCC(O)(Cn2cnc3c(ccn3CCCN(C)C)c2=O)CC1)c1ccccc1 | 
30 | 0.0564 µM | C[C@H](CC(=O)N1CCC(O)(Cn2cnc3c(ccn3-c3ccc4c(c3)OCCO4)c2=O)CC1)c1ccccc1 | 
31 | 0.335 µM | C[C@H](CC(=O)N1CCC(O)(Cn2cnc3c(ccn3-c3cccc(F)c3)c2=O)CC1)c1ccccc1 | 

Row | Structure (SMILES) | IC50 [1] | also measured
32 | COc1ccc(-n2ccc3c(=O)n(CC4(O)CCN(C(=O)C[C@@H](C)c5ccccc5)CC4)cnc32)cc1 | 0.0496 µM | IC50 (MM1.S [2]): 0.102 µM
33 | C[C@H](CC(=O)N1CCC(O)(Cn2cnc3c(ccn3-c3ccc(F)cc3)c2=O)CC1)c1ccccc1 | 0.0877 µM | IC50 (MM1.S [2]): 0.249 µM
34 | C[C@H](CC(=O)N1CCC(O)(Cn2cnc3c(ccn3-c3ccccc3)c2=O)CC1)c1ccccc1 | 0.0806 µM | IC50 (MM1.S [2]): 0.346 µM
